Measured values published in patent US12516080B2, “Remdesivir and remdesivir analogs, solutions, and nanoparticle, liposomal, and microparticle compositions for treating viral infections” (priority 2020, dated 2026).
Where two headings read alike, the source gives them in different places.

Legend:
[1] = In-vitro plasma stability, mouse plasma; format: in vitro ADME; settings: compared with remdesivir
Procedure: (§1) For nucleoside triphosphate analysis, LC-MS/MS was performed by ion-pairing chromatography using LC 20AD UFLC (Shimadzu, Japan) couple with an API 5500 (AB Sciex, USA). The separation was achieved on a 50×2.1 mm Agilent 3.5 μm C18 column. The mobile phase consisted of 3 mM ammonium formate with 10 mM dimethylhexylamine in water (mobile phase A), and 0.1% formic Acid in ACN (mobile phase B). A multi-stage linear gradient initiated with 2% B for 1 min, increased to 95% B in 2 min and maintained with 95% B for 1 min at a flow rate of 0.4 mL/min. Detection was performed on negative ion mode and multiple reaction monitoring modes.
(§2) Remdesivir, analogs and their metabolites alanine metabolite and Nuc were analyzed on an X500R QTOF System (AB Sciex, USA). Chromatographic separation was obtained on a 50×2.1 mm Agilent 3.5 μm C18 column using constant flow rate of 0.6 mL/min. The gradient mobile phase consisted of 0.1% formic acid in water (mobile phase A) and 0.1% formic acid acetonitrile (mobile phase B), running from 5% B to 95% B within 3 min and then maintaining 95% B for 1 min. The eluent was introduced into quadrupole time-of-flight mass spectrometry by electrospray ionization (ESI) operated in positive modes.
(§3) All the analytes were quantified using 10-point standard curves ranging from 5 to 5000 ng/mL.
(§4) To test the in-vitro plasma stability, 5 ul of […] test compound (remdesivir, MMT4-70, MMT4-98, MMT5-1) was added to 495 ul human, hamster, and mouse plasma, respectively. The structures of MMT4-70, MMT4-98, MMT5-1 are shown below. Aliquot of 40 μL was pipetted from the reaction solution and stopped by the addition of 160 μL cold acetonitrile at different sampling time (0, 10 min, 30 min, 60 min and 120 min). The incubation solution was centrifuged at 3500 rpm for 10 minutes to precipitate protein. The supernatant was used for LC/MS/MS analysis.

[2] = In-vitro plasma stability, statements over human, hamster, and mouse plasma; format: in vitro ADME; settings: different plasmas
Procedure: as §1, §2, §3, §4

[3] = In-vitro plasma stability, human plasma; format: in vitro ADME
Procedure: as §1, §2
All the analytes were quantified using 10-point standard curves ranging from 5 to 5000 ng/mL. […]

[4] = Short-time PK test and initial tissue targeting (plasma, blood, lung); format: in vivo; settings: hamsters, i.v. 10 mg/Kg
Procedure: as §1, §2, §3
Short-time PK test was used to compare different compounds. Five remdesivir analogs (MMT4-70, MMT4-98, MMT5-1, MMT5-14, and MMT5-15) were compared to remdesivir. The structures of MMT5-14 and MMT5-15 are shown below. Albumin nanocomplexes of the remdesivir analogs were made according to the following procedure: organic phase was prepared by dissolving the synthesized compounds (20 mg) into chloroform (1 ml). 20 ml of marketed HSA solution (5%) was then mixed with organic phase and dispersed vigorously by a rotor-stator homogenizer (Ultra-Turrax T25, 8K rpm-12K rpm, 5 min) to generate a milk-like emulsion. The emulsion was then processed by a high-pressure homogenizer (Nano DeBEE) with the parameters set as pressure=15,000 psi-20,000 psi, condensation temp=5° C., cycles=6. Remaining organic solvent in the product was removed by a rotatory evaporator. The final nano-suspension was filtered with 0.22 μm membrane and freeze dried (primary drying temp=−5° C. for 30 h and secondary drying temp=30° C. for 6 h). The vials were filled with nitrogen before sealing and stored at −20° C.
The formulations and remdesivir (marketed formulation) were i.v. administered to catheterized hamsters with dose of 10 mg/Kg. Each group had two hamsters. At different time points (0.25 hr, 1 hr, 2 hr and 4 hr), plasma was collected for future LC-MS analysis. At 4 hr time point, the hamsters were euthanized and blood and lung were collected for future LC-MS analysis.

[5] = Tissue targeting of formulations (concentration-time profiles and AUC in tissues); format: in vivo; settings: hamsters, i.v. 10 mg/Kg; for parent compound concentration through all tissues: 0.5-24 hr, short time points
Procedure: as §1, §2, §3
Besides nano formulation, a cyclodextrin-based formulation was also prepared for MMT5-14. Briefly, 2% cremophor and 2% ethanol was added to dissolve the MMT5-14, followed by mixing with 20% SBE-CD. Two formulated MMT5-14 compounds together with remdesivir (marketed formulation) were i.v. administered to catheterized hamsters with dose as 10 mg/Kg. Each group has two hamsters. At different time points (0.5 hr, 1 hr, 4 hr, 7 hr and 24 hr), the hamsters were euthanized and samples including plasma, blood, blood vessel, heart, intestine, kidney, lung, lymph node, spleen, trachea, and others were collected for future LC-MS analysis.

[6] = test system: COVID-19 virus; experiment: In vitro anti-COVID-19 virus activity of remdesivir (literature); format: cell-based, SARS-CoV-2; settings: assuming intracellular Nuc-TP accumulates more than 10-fold to extracellular remdesivir
[7] = test system: THP-1 cells; experiment: Cellular uptake of formulations, THP-1 cells; format: cell-based; settings: 10 μM
[8] = test system: Calu-3 cells; experiment: Cellular uptake of formulations, Calu-3 cells; format: cell-based; settings: 10 μM
[9] = test system: AMJ2-C11 cells; experiment: Cellular uptake of formulations, AMJ2-C11 cells; format: cell-based; settings: 10 μM
[10] = marmosets, cited from earlier work
[11] = mice, cited from earlier work
[12] = test system: PBMC, monocytes, Hela, microphage, and HUVEC; settings: multiple human and rhesus monkey cells; cited from earlier work
[13] = test system: B24 cells; settings: cited from earlier work
[14] = test system: human cells; settings: in vitro metabolism; cited from earlier work
[15] = cited from earlier work

In the case of `CCCCCCCCCCCCOC(=O)[C@H](C)NP(=O)(OC[C@H]1O[C@@H](c2ccc3c(N)ncnn23)[C@H](O)[C@@H]1O)Oc1ccccc1` (stereo partly drawn) [MMT4-70], the “stability taking account of ALA generation” value (“stability taking account” below) [1] is reported as “similar/better stability” and the “overall stability compared with remdesivir” value [2] is reported as “more stable than remdesivir”.
With `CCCCCCCCCCCCOC(=O)[C@H](C)NP(=O)(OC[C@H]1O[C@@H](c2ccc3c(N)ncnn23)[C@H](O)[C@@H]1O)Oc1cccc2ccccc12` (stereo partly drawn) [MMT4-98] the “stability taking account” value [1] was “similar/better stability” and the “overall stability compared with remdesivir” value [2] was “more stable than remdesivir”.
With `C[C@H](NP(=O)(OC[C@H]1O[C@@H](c2ccc3c(N)ncnn23)[C@H](O)[C@@H]1O)Oc1cccc2ccccc12)C(=O)OCc1ccccc1` (stereo partly drawn) [MMT5-1] the “stability ranking in human plasma” value [3] was “behaved best”, the “stability taking account” value [1] was “similar/better stability” and the “overall stability compared with remdesivir” value [2] was “more stable than remdesivir”.
In the case of `CCCCCC/C=C\C/C=C\CCCCCCCCOC(=O)[C@H](C)NP(=O)(OC[C@H]1O[C@@H](c2ccc3c(N)ncnn23)[C@H](O)[C@@H]1O)Oc1ccccc1` (stereo partly drawn) [MMT5-14], the “stability and concentration in blood and lung tissue (reason for selection)” value [4] is reported as “balanced stability and high concentration in blood and lung tissue”, the “ALA metabolite concentration in tissues compared with remdesivir” value [5] is reported as “higher” and the “parent compound concentration through all tissues” value [5] is reported as “much higher”. For the same molecule, the “AUC of ALA compared with remdesivir” value ([5]; all analyzed tissues) was “higher AUCs”, the “AUC of the parent compound compared with remdesivir” value ([5]; all analyzed tissues) was “higher AUCs” and the “parent compound, MMT5-14 versus Nano-MMT5-14 groups” value ([5]; blood vessel, kidney, and trachea) was “higher”. The “active metabolite NTP accumulation” value ([5]; blood, lung, and spleen) was “behaved better” and the “parent compound, MMT5-14 versus Nano-MMT5-14 groups, most tissues” value ([5]; most tissues) was “No significance”.
Molecule `N#C[C@@]1(c2ccc3c(N)ncnn23)O[C@H](COP(=O)(O)OP(=O)(O)OP(=O)(O)O)[C@@H](O)[C@H]1O` [Nuc-TP] has an EC50 ([6]; read-out: EC50 of intracellular Nuc-TP against COVID-19 virus) greater than 7.7 µM and an EC90 ([6]; read-out: EC90 of intracellular Nuc-TP against COVID-19 virus) greater than 17.6 µM.
In the case of `CCC(CC)COC(=O)[C@H](C)N[P@](=O)(OC[C@H]1O[C@@](C#N)(c2ccc3c(N)ncnn23)[C@H](O)[C@@H]1O)Oc1ccccc1` [remdesivir, Remdesivir], the “stability in plasma (plasma concentration change)” value ([4]; 0.25-4 hr) is reported as “quickly metabolized”, the “ALA concentration in plasma” value ([4]; short time points) is reported as “High concentration” and the “NUC concentration in plasma” value ([4]; short time points) is reported as “High concentration”. The “parent compound concentration through all tissues” value [5] was “quickly metabolized”, the “active metabolite NTP accumulation” value ([5]; blood vessel, heart, and lymph node) was “better accumulation” and the “NUC concentration in tissues” value ([5]; several tissues like heart and trachea) was “high concentration”. The “alanine metabolite concentration in cells” value [7] was “higher concentrations”, the “alanine metabolite concentration in cells” value [8] was “higher concentrations” and the “generation of NTP in cells” value [8] was “higher generation”. For the same molecule, the “alanine metabolite concentration in cells” value [9] was “higher concentrations”, the “generation of NTP in cells” value [9] was “higher generation” and the “concentration of Nuc-TP in the lung” value ([10]; i.v. bolus 10 mg/kg remdesivir) was 800 to 1500 nM. For the same molecule, the “remdesivir in the lungs” value ([10]; i.v. bolus 10 mg/kg) was “not detectable”, the “concentration of Nuc-TP in the lung” value ([11]; 25-50 mg/kg remdesivir) was roughly 3000 nM and the “concentration of remdesivir in the lung” value ([11]; 25-50 mg/kg) was “did not achieve measurable concentration”. For the same molecule, the “intracellular Nuc-TP versus extracellular concentration of remdesivir” value [12] was 25-100 folds, the “intracellular Nuc-TP accumulation relative to extracellular remdesivir” value [13] was “more than 3 fold” and the other metabolites share [14] was 45%. The “remdesivir converted into Nuc-TP” value [14] was “approximately 55%”, the “Nuc-TP concentration in PBMC” value ([15]; blood cells such as PBMC) was 30-40 PM and the “concentration of Nuc-TP in the lung” value ([15]; monkey, 10 mg/kg remdesivir) was 800 to 1500 nM. For the same molecule, the “concentration of remdesivir in the lung” value ([15]; monkey, 10 mg/kg) was “did not achieve measurable concentration”, the “plasma nucleoside monophosphate (Nuc-MP) concentration” value ([15]; monkey, i.v. 10 mg/kg remdesivir, for 12-24 hrs) was 0.5 to 1 µM and the “remdesivir plasma concentration in 30 min” value ([15]; monkey, i.v. 10 mg/kg, 30 min) was “below 0.5 μM”. The remdesivir plasma concentration ([15]; monkey, i.v. 10 mg/kg, initial) was “several micromolar”.
